# Experimental data published in ChEMBL document CHEMBL1201862, “PubChem BioAssay data set” (2004).
# Active and inactive are the calls of the source.
# Legend:
# [1] = MIN6 cell viability loss – mouse insulinoma, cytotoxicity control, dose response (AID 2122); assay type: functional;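 also: confirmatory high-throughput counterscreen run to flag cytotoxic compounds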
# [2] = NIH3T3 cell viability loss – ATP luminescence, mouse fibroblasts, counter-screen, dose response (AID 2010); assay type: functional, cell-based;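 also: cells exposed to compound for about 90 hours before reading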
# [3] = Trypanosoma cruzi growth suppression in host cells – NIH3T3 host cells, beta-gal luminescence, confirmation (AID 2044); assay type: functional, cell-based;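 also: intracellular parasites grown in NIH/3T3 mouse fibroblasts as host cells; luminescent beta-galactosidase reporter signal from transgenic T. cruzi replicating inside host cells; inhibitors lower the luminescence signal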
# [4] = decrease of insulin promoter-GFP reporter – imaging, high-content screening, mouse beta cells (AID 1628); assay type: functional; conditions: MIN6
# [5] = Counterscreen for AddAB inhibitors: absorbance-based bacterial cell-based high throughput dose response assay for inhibitors of bacterial viability. [Related pubchem assays (depositor defined):AID435030, AID449728, AID449731, AID488942, AID488955, AID488956]; assay type: functional
# Exodeoxyribonuclease V = molecular target: T1, Exodeoxyribonuclease V (Escherichia coli (strain K12), UniProt P04993+P07648+P08394); test: RecBCD inhibition via phage-restricted bacterial growth – absorbance, V66 E. coli, mutant T4 phage, counter-screen for AddAB inhibitor project, dose response (AID 492957); assay type: functional, cell-based, Escherichia coli str. K-12 substr. MG1655
# T1 sequence (P04993 whole entry): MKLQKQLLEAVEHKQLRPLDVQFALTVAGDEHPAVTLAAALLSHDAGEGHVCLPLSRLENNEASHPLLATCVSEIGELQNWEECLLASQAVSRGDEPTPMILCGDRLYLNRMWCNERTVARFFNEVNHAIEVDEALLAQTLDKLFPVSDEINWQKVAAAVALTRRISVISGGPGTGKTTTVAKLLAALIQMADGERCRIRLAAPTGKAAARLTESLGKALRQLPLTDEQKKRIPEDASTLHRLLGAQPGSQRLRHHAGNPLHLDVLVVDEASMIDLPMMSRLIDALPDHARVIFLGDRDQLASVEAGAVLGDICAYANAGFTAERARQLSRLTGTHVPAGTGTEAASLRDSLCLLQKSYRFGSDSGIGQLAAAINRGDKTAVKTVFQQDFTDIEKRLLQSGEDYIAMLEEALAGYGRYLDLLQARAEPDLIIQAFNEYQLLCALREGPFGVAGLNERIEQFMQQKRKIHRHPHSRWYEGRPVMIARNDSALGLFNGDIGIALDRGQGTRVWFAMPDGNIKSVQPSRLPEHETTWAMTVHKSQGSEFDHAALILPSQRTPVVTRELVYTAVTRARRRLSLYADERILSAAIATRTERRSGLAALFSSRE
# T1 sequence (P07648 whole entry): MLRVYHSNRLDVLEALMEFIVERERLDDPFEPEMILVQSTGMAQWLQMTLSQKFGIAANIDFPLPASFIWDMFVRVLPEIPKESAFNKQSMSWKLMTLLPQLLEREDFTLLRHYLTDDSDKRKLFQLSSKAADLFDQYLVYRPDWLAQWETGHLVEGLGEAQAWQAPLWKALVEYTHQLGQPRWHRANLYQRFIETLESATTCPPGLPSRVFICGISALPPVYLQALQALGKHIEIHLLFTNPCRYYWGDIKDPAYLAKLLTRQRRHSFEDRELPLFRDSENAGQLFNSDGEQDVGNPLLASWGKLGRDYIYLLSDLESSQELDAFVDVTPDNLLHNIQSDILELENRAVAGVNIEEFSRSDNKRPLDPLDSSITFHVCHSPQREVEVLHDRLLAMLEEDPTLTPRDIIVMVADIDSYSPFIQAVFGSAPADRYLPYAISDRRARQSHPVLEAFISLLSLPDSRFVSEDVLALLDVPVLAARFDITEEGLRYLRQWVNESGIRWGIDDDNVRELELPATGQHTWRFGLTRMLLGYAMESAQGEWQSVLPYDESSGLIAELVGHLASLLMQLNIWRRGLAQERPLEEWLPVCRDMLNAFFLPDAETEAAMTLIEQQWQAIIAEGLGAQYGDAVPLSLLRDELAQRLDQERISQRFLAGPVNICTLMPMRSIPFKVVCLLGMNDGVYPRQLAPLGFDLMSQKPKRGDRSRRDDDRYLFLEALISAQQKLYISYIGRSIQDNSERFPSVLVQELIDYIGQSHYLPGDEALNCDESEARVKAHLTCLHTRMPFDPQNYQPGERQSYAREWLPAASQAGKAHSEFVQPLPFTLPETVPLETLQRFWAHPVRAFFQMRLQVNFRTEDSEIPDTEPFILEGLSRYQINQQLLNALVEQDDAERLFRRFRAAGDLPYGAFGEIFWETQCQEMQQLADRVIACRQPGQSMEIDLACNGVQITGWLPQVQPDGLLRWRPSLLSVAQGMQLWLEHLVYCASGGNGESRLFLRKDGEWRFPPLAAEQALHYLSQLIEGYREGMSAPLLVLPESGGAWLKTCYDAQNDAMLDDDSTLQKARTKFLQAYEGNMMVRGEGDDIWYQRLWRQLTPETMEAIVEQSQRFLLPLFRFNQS
# T1 sequence (P08394 whole entry): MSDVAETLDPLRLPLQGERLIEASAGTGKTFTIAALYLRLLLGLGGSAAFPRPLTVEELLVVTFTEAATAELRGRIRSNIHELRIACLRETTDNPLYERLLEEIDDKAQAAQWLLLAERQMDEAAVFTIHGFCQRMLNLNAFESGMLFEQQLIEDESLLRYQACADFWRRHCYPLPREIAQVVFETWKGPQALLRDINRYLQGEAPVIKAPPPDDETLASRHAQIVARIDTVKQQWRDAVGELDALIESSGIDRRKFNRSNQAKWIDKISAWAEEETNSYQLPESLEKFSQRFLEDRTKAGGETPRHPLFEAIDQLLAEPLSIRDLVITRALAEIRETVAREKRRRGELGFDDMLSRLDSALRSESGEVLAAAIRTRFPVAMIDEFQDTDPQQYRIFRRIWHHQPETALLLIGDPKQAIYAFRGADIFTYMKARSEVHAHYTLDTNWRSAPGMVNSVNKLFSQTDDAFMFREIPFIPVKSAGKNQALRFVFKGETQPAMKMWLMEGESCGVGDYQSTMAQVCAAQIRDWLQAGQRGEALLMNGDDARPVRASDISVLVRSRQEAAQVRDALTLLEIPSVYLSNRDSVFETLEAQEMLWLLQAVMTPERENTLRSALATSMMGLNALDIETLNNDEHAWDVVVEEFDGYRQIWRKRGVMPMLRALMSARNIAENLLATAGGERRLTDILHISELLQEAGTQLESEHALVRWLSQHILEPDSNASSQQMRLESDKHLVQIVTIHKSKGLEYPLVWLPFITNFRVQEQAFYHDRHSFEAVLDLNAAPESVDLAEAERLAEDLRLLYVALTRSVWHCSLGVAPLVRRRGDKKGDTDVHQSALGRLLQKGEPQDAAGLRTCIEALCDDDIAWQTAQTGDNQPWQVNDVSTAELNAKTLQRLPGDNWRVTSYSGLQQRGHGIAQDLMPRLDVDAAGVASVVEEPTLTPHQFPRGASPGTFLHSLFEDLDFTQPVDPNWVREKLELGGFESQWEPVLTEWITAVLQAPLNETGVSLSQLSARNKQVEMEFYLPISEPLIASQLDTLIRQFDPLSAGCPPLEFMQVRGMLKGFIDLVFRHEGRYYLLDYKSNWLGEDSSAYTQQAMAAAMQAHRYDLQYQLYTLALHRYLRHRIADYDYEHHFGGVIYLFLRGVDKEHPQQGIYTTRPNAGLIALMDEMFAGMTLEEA
# [6] = NIH-3T3 fibroblast cytotoxicity, dose response, cytotoxicity control, cell-based, fluorescence, Alamar Blue, secondary assay (AID 2327); assay type: functional;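 also: NIH-3T3 mouse fibroblasts cultured with fluconazole at 8 µg/mL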
# Albumin = Albumin (Bos taurus, UniProt P02769); test: Counterscreen for inhibitors of T-cell receptor (TCR)-CD3 interaction: Fluorescence-based biochemical high throughput dose response assay to identify inhibitors of T-cell receptor (TCR)-CD3 interaction using a TAMRA-labeled BSA probe.; assay type: functional
# [7] = molecular target: T2, Heat shock factor protein 1 (Mus musculus, UniProt P38532); test: decrease of HSF1-responsive luciferase luminescence – cell-based, NIH3T3, dose retest, confirmation (AID 2382); assay type: functional;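 also: NIH3T3 fibroblasts with HSF1-driven luciferase reporter stressed by proteasome inhibitor MG132; luminescence from HSF1-driven luciferase expression after 8 hours of MG132 stress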
# T2 sequence (P38532 whole entry): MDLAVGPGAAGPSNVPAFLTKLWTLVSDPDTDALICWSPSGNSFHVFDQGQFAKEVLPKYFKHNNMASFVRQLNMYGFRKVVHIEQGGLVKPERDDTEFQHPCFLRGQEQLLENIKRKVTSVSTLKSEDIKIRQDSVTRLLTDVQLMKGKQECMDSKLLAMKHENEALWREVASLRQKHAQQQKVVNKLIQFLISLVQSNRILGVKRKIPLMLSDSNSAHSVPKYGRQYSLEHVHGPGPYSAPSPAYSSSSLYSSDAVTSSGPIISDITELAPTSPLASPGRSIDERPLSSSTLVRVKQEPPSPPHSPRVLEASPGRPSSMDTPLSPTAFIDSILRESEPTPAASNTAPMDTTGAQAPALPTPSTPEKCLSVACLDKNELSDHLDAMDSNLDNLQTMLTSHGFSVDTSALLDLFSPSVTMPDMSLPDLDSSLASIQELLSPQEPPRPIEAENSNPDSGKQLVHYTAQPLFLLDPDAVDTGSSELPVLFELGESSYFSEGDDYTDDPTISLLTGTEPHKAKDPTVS
# Estrogen receptor beta = Estrogen receptor beta (Homo sapiens, UniProt Q92731);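 also: recombinant ER-beta bound to coactivator SRC1 peptide in presence of estradiol agonist; inhibitors block coactivator peptide binding and lower the FRET signal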
# [8] = Fluorescence-based cell-based high throughput dose response assay for inhibitors of the interaction of nucleotide-binding oligomerization domain containing 2 (NOD2) and the receptor-interacting serine-threonine kinase 2 (RIPK2).; assay type: functional; conditions: Homo sapiens
# HEK293 [9] = test: cells; conditions: Homo sapiens
# HEK293 [10] = test: cells; conditions: Homo sapiens; remark: listed apart in the source
# [11] = Luminescence Cell-Based Dose Response HTS to Identify Inhibitors of 5'UTR Stem-Loop Driven Prion Protein mRNA Translation in H4 Neuroglioblastoma Cells. [Related pubchem assays: 1827 (Project Summary), 1813 (Primary HTS)]; assay type: functional
# [12] = luciferase reporter signal suppression in cells – H4 neuroglioma cells, luminescence, dose response (AID 1990); assay type: functional, cell-based
# [13] = alpha-synuclein stem-loop luciferase translation blockers – H4 neuroglioma cells, luminescence, confirmation (AID 1988); assay type: functional, cell-based
# cells [14] = assay type: functional, cell-based
# [15] = Luminescence Cell-Based Dose Retest to Confirm Inhibitors of Cancer Stem Cells. [Related pubchem assays (depositor defined):AID2717, AID2721]; assay type: functional; conditions: Homo sapiens
# cells [16] = assay type: functional, cell-based; remark: listed apart in the source
# INS1 = test: INS-1E survival protection against cytokine death – cell-based, luminescence, retest, dose response (AID 449756); assay type: functional; conditions: Rattus norvegicus;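 also: cell death triggered by IL-1 beta plus TNF-alpha plus IFN-gamma mixture; protective hits raise ATP signal compared with cytokine alone wells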
# Chain of Albumin (P02769 whole entry): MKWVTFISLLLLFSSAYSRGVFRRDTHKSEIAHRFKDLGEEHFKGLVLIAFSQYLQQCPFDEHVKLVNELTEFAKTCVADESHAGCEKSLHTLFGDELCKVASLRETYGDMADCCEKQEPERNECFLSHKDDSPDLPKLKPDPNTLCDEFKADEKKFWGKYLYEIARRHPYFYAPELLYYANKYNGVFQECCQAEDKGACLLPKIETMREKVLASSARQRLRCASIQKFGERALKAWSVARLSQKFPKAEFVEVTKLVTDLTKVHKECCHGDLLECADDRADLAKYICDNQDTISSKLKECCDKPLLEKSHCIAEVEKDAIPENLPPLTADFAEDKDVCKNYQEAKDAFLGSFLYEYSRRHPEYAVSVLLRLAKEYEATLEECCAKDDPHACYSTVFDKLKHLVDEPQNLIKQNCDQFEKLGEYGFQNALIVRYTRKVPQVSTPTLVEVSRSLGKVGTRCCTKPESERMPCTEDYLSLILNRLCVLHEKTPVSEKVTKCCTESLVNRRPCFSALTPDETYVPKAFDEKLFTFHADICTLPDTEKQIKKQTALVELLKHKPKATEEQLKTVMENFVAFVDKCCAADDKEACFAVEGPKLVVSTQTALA
# Chain of Estrogen receptor beta (Q92731 whole entry, the tested form may be a part): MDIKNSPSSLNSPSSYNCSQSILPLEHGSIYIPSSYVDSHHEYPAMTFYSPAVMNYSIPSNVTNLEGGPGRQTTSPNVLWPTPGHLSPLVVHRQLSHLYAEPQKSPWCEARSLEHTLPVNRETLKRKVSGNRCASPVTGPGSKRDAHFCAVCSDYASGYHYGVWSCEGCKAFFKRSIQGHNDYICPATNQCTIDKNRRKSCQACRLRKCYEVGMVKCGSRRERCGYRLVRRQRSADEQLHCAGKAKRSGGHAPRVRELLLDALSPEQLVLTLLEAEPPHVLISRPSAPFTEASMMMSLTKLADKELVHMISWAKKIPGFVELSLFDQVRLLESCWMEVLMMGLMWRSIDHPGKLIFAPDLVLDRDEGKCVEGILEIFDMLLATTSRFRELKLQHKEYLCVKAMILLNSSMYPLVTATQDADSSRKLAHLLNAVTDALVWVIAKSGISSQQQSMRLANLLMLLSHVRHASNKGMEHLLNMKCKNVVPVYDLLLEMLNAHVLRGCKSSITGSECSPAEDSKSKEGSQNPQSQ
smiles,measurement,setting,value
CCN(CC)C1=CC(=[N+]2CCCC2)CC(C)(C)C1,IC50,[1],< 0.25 µM (active)
same,EC50,[2],> 60 µM (inconclusive)
same,EC50,[3],0.732 µM (active)
same,IC50,[4],< 0.25 µM (active)
COc1ccccc1NC(=O)NNC(=O)c1cc2ccccc2cc1O,IC50,[5],> 119 µM (inactive)
same,IC50,Exodeoxyribonuclease V,> 119 µM (inactive)
same,EC50,[6],> 160 µM (inactive)
same,IC50,Albumin,> 94.1 µM (inactive)
CCc1ccc(C(=O)Cn2ncc(Cl)c(Cl)c2=O)cc1,EC50,[7],5.77 µM (active)
same,IC50,Estrogen receptor beta,> 50 µM (not active)
same,EC50,[2],4.03 µM (active)
same,EC50,[3],2.19 µM (active)
same,IC50,[8],3.38 µM (active)
same,EC50,HEK293 [9],> 59.6 µM (inactive)
same,EC50,HEK293 [10],> 59.6 µM (inactive)
C/C=C/CSc1nc2c(c(=O)[nH]c(=O)n2C)n1Cc1ccc(C)cc1,EC50,[11],> 120 µM (not active)
same,EC50,HEK293 [9],> 59.6 µM (inactive)
same,EC50,HEK293 [10],> 59.6 µM (inactive)
same,EC50,[12],21.2 µM (active)
same,EC50,[13],21.4 µM (active)
Cc1cc([N+](=O)[O-])nn1Cc1ccc(C(=O)N/N=C/c2ccc(O)cc2O)cc1,IC50,[5],> 119 µM (inactive)
same,IC50,Exodeoxyribonuclease V,> 119 µM (inactive)
same,EC50,cells [14],9.79 µM (active)
same,AC50,[15],1.71 µM (active)
same,EC50,cells [16],> 350 µM (not active)
same,AC50,INS1,1.37 µM (active)
CC1(c2ccc([N+](=O)[O-])cc2)CC(C)(C)N(C(=O)c2ccccc2)c2ccccc21 (stereo not given),IC50,[1],7.16 µM (active)
same,IC50,[4],7.17 µM (active)
CCN1CCN(S(=O)(=O)c2cc(OCC(=O)NC3CCCCC3)c(C)cc2Cl)CC1,IC50,[1],2.03 µM (active)
same,IC50,[4],2.29 µM (active)
